Assay results from patent US6737383B1, “Herbicidal oxadiazolidines” (priority 1999, dated 2004).

Tests used:
corn = test: Test B pre/postemergence corn; format: in vivo, Zea mays; settings: for Corn plant response rating: scale of 0 to 10 where 0 is no effect and 10 is complete control
Procedure, shortened: (§1)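 Herbicidal effect was estimated by eye on a ten-point control scale after plants spent twelve to sixteen days in a greenhouse following soil or foliar treatment. Foliar sprays targeted plants at one to four leaves; all doses were formulated in a non-phytotoxic solvent with surfactant.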

rape = test: Test B pre/postemergence rape; format: in vivo, Brassica napus; settings: for Rape plant response rating: scale of 0 to 10 where 0 is no effect and 10 is complete control
Procedure, shortened: as §1

soybean = test: Test B pre/postemergence soybean; format: in vivo, Glycine max; settings: for Soybean plant response rating: scale of 0 to 10 where 0 is no effect and 10 is complete control
Procedure, shortened: as §1

smallflower flatsedge = test: Test B flood test smallflower flatsedge; format: in vivo, Cyperus difformis
Procedure, shortened: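 Each value is a visual injury score relative to controls, with 10 meaning complete control and 0 no effect. Evaluation took place twelve to sixteen days after the 2-leaf-stage plants were treated and kept in the greenhouse.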

dallisgrass = test: Test D dallisgrass; format: in vivo, Paspalum dilatatum; settings: Postemergence, 0 to 100 scale
goosegrass = test: Test D goosegrass; format: in vivo, Eleusine indica; settings: Postemergence, 0 to 100 scale
large crabgrass = test: Test D large crabgrass; format: in vivo, Digitaria sanguinalis; settings: Postemergence, 0 to 100 scale
purple nutsedge = test: Test D purple nutsedge; format: in vivo, Cyperus rotundus; settings: Postemergence, 0 to 100 scale
Green foxtail = test: Test D green foxtail; format: in vivo; settings: Postemergence, 0 to 100 scale, 0 no injury, 100 complete control
[1] = Postemergence, Rate 125 g/ha, scale 0 to 10, 0 is no effect, 10 is complete control
[2] = Preemergence, Rate 62 g/ha, scale 0 to 10 (0 no effect, 10 complete control)
[3] = Rate 500 g/ha, Postemergence, scale 0 to 10, 0 no effect, 10 complete control
[4] = Rate 16 g/ha, 0 no injury, 100 complete control
[5] = Rate 32 g/ha, 0 no injury, 100 complete control
[6] = Rate 64 g/ha, 0 no injury, 100 complete control
[7] = Rate 125 g/ha, 0 no injury, 100 complete control

Question: How did the “Plant response rating, Corn” value (corn; [1]) turn out when `COCC(C)n1c(=O)on(C(=O)N(c2ccc(F)cc2F)C(C)C)c1=O` (stereo not shown) [Compound 357] was run?
Answer: 0

Question: And the “Plant response rating, Corn” value (corn; [2])?
Answer: 0

Question: And the “Corn plant response rating (0 to 10 scale)” value (corn; Preemergence, Rate 125 g/ha)?
Answer: 0

Question: And the “Corn plant response rating” value (corn; Preemergence, Rate 250 g/ha)?
Answer: 6

Question: And the “Corn plant response rating” value (corn; Preemergence, Rate 500 g/ha)?
Answer: 9

Question: What about the “Corn plant response rating” value (corn; Rate 62 g/ha, Postemergence) of the same compound?
Answer: 0

Question: What about the “Plant response rating, Corn” value (corn; [3]) of the same compound?
Answer: 3

Question: What about the “Plant response rating, Rape” value (rape; [1]) of the same compound?
Answer: 0

Question: What about the “Plant response rating, Rape” value (rape; [2]) of the same compound?
Answer: 0

Question: What about the “Rape plant response rating (0 to 10 scale)” value (rape; Preemergence, Rate 125 g/ha) of the same compound?
Answer: 2

Question: What about the “Rape plant response rating” value (rape; Preemergence, Rate 250 g/ha) of the same compound?
Answer: 8

Question: What about the “Rape plant response rating” value (rape; Preemergence, Rate 500 g/ha) of the same compound?
Answer: 8

Question: And the “Rape plant response rating” value (rape; Rate 62 g/ha, Postemergence)?
Answer: 0

Question: What about the “Plant response rating, Rape” value (rape; [3]) of the same compound?
Answer: 4

Question: And the “Plant response rating, Soybean” value (soybean; [1])?
Answer: 2

Question: What about the “Plant response rating, Soybean” value (soybean; [2]) of the same compound?
Answer: 0

Question: What about the “Soybean plant response rating (0 to 10 scale)” value (soybean; Preemergence, Rate 125 g/ha) of the same compound?
Answer: 0

Question: And the “Soybean plant response rating” value (soybean; Preemergence, Rate 250 g/ha)?
Answer: 0

Question: And the “Soybean plant response rating” value (soybean; Preemergence, Rate 500 g/ha)?
Answer: 0

Question: What about the “Soybean plant response rating” value (soybean; Rate 62 g/ha, Postemergence) of the same compound?
Answer: 2

Question: What about the “Plant response rating, Soybean” value (soybean; [3]) of the same compound?
Answer: 3

Question: What about the “Plant response rating, S. Flatsedge” value (smallflower flatsedge; Postemergence (flood test), Rate 125 g/ha, scale 0 to 10, 0 is no effect, 10 is complete control) of the same compound?
Answer: 0

Question: And the “S. Flatsedge plant response rating” value (smallflower flatsedge; Rate 62 g/ha, Postemergence (flood test species), scale of 0 to 10 where 0 is no effect and 10 is complete control)?
Answer: 0

Question: And the “Plant response rating, S. Flatsedge” value (smallflower flatsedge; Rate 500 g/ha, listed under Postemergence (flood test species), scale 0 to 10, 0 no effect, 10 complete control)?
Answer: 8

Question: And the “Plant response rating, Dallisgrass” value (dallisgrass; [4])?
Answer: 0

Question: And the “Plant response rating, Dallisgrass” value (dallisgrass; [5])?
Answer: 20

Question: What about the “Plant response rating, Dallisgrass” value (dallisgrass; [6]) of the same compound?
Answer: 100

Question: What about the “Plant response rating, Dallisgrass” value (dallisgrass; [7]) of the same compound?
Answer: 100

Question: And the “Plant response rating, Dallisgrass” value (dallisgrass; Rate 250 g/ha)?
Answer: 100

Question: What about the “Plant response rating, Goosegrass” value (goosegrass; [4]) of the same compound?
Answer: 90

Question: And the “Plant response rating, Goosegrass” value (goosegrass; [5])?
Answer: 100

Question: What about the “Plant response rating, Goosegrass” value (goosegrass; [6]) of the same compound?
Answer: 100

Question: What about the “Plant response rating, Goosegrass” value (goosegrass; [7]) of the same compound?
Answer: 100

Question: What about the “Plant response rating, Goosegrass” value (goosegrass; Rate 250 g/ha) of the same compound?
Answer: 100

Question: And the “Plant response rating, Large crabgrass” value (large crabgrass; [4])?
Answer: 100

Question: What about the “Plant response rating, Large crabgrass” value (large crabgrass; [5]) of the same compound?
Answer: 100

Question: What about the “Plant response rating, Large crabgrass” value (large crabgrass; [6]) of the same compound?
Answer: 100

Question: And the “Plant response rating, Large crabgrass” value (large crabgrass; [7])?
Answer: 100

Question: And the “Plant response rating, Large crabgrass” value (large crabgrass; Rate 250 g/ha)?
Answer: 100

Question: And the “Plant response rating, Purple nutsedge” value (purple nutsedge; [4])?
Answer: 0

Question: And the “Plant response rating, Purple nutsedge” value (purple nutsedge; [5])?
Answer: 0

Question: And the “Purple nutsedge plant response rating” value (purple nutsedge; [6])?
Answer: 0

Question: What about the “Purple nutsedge plant response rating” value (purple nutsedge; [7]) of the same compound?
Answer: 0

Question: And the “Plant response rating, Purple nutsedge” value (purple nutsedge; Rate 250 g/ha)?
Answer: 50

Question: What about the “Plant response rating, Green foxtail” value (Green foxtail; Rate 16 g/ha) of the same compound?
Answer: 10

Question: And the “Plant response rating, Green foxtail” value (Green foxtail; Rate 32 g/ha)?
Answer: 30
